Where two headings read alike, the source gives them in different places.
Experiments:
keratinocyte cells [1] = type: cell-based, human; conditions: below 5×10^-4 M, 24 hours treatment
Text: (§1) Adult human keratinocytes from pooled donor skin were obtained from commercial sources (Cascade Biologics, Portland, Oreg., U.S.A.) and placed in 150 cm^2 bottom area culture flasks using culture medium 154 supplemented with HKGS (about 1%). At 80% confluency, cells were harvested with trypsin and cryopreserved until required.
The induction of apoptosis is a critical feature in the programmed cell death as it relates to disease conditions such as cancer, psoriasis, etc. where the uncontrolled proliferation of "immortal" cells such as keratinocytes is a causative feature of the disease. This example compares the ability of gallium maltol to induce apoptosis as compared to negative control (no gallium maltol), and positive control (CAM--an agent known to strongly induce apoptosis). The ability for gallium maltol to effect apoptosis was also measured by the inhibitory effect of ATA.
Specifically, keratinocyte cells were grown using medium 154 in 24 well plates seed with 2,500 cells/cm^2 as described above. Cultures were continued for 3 or 6 days when the cells had achieved about 20 or 60% confluence respectively. On these 2 occasions, media were aspirated from groups of 3 or 4 wells and replaced with high Ca^+2 medium either without supplement or with one of the following supplements:
1. Gallium maltol at a final concentration of one of the following: (a) 5×10^-4 M, (b) 1×10^-4 M, (c) 5×10^-5 M, (d) 1×10^-5 M, and (e) 1×10^-6 M;
4. As in (3) plus CAM at 1×10^-5 or 1×10^-6 M; and
5. As in (3) plus gallium maltol at 1×10^-4 or 2.5×10^-4 M;
(§2) Culture was renewed for a further 24 hours. At this time, media were removed and discarded, and the cells lysed with 200 μL/well of the solution provided in the Cell Death Detection Kit ELISA Plus (Boehringer Mannheim Biochemicals, Indianapolis, Ind., U.S.A., catalogue number 1774425). Aliquots of the lysate (20 μL) from each of 2 or 3 wells were assayed for nucleosomal enrichment following the kit instructions.

keratinocyte cells [2] = type: cell-based, human; conditions: keratinocytes, 48 h, 500 µM
Procedure: as §1, §2
The evaluation of apoptosis of keratinocytes was conducted to determine the relative affect on apoptosis achieved by gallium maltol, gallium nitrate and maltol. Specifically, keratinocyte cells were seeded in 12 well plates seed using culture medium 154. Cultures were continued for 4 days and the medium was changed to medium 154 with 1.2 mM Ca^+2 either without supplement or with one of the following supplements:
1. gallium maltol at a final concentration of 5×10^-4 M;
2. gallium nitrate at a final concentration of 5×10^-4 M;
3. maltol at a concentration of 15×10^-4 M; and
4. CAM at a concentration of 1×10^-5 M.
Three (3) wells were used in each group. The final amount of medium was 300 μL in each well. Culture was continued for 2 days. Bars represent absorbance at 405 nm minus the absorbance at 492 nm.

## Cc1occc(=O)c1[O-].Cc1occc(=O)c1[O-].Cc1occc(=O)c1[O-].[Ga+3] [gallium maltol, neutral 3:1 gallium complex of maltol]
Keratinocyte cells [1]; cultured 3 days prior, FIG. 5
  increase in apoptosis at lower concentrations: failed to provide such a significant increase in apoptosis
Keratinocyte cells [1]; cultured 6 days prior, FIG. 6
  increase in apoptosis at lower concentrations: smaller increases in apoptosis at lower concentrations
Keratinocyte cells [2]
  increase in apoptosis compared to control: ~19 fold
